# Test results published in patent US20060229208A1, “Use of acyl cyclohexandione derivatives in conjunction with ethephon for treating pomaceous fruit” (BASF AKTIENGESELLSCHAFT, priority 2003, published 2006).
# Experiments:
# [1] = tested on: pome fruit, specifically apples and pears; test: Applicant's experiments on floral development in the year after treatment with acylcyclohexanedione growth regulators; assay type: in vivo
# Source text: Thus, D. Sugar, D. C. Elfving and E. A. Mielke report in Acta Hort. […] In the most extreme case, no floral development at all takes place in the year after the treatment.
# [2] = tested on: pear trees; settings: cited from earlier work
# [3] = tested on: 12-year-old pear trees cv. "Conference" on BA rootstock; test: Flowering behavior in pears after treatment with prohexadione-calcium and ethephon (inflorescence count about one year after first application); assay type: in vivo
# Method: 1. Flowering Behavior in Pears after Treatment with Prohexadione-calcium and Ethephon
# 12-year-old pear trees cv. “Conference” on BA rootstock at two different locations were treated first with prohexadione-calcium alone and secondly with a combination of prohexadione-calcium and ethephon. To this end, 4 groups of 5 trees each, which were uniformly distributed in an orchard, were sprayed with an active-ingredient-comprising spray mixture to run-off point (approx. 1000 l/ha). Three applications at intervals of approximately one month were carried out at the first location. At the second location, prohexadione-calcium was applied four times to a part of the groups of trees and three times to another part, the application interval being in each case approximately two weeks. The combination of prohexadione-calcium and ethephon was applied twice, with in each case one application with prohexadione-calcium alone being carried out before and after the combined application. Approximately one year after the first application, the number of inflorescences of untreated trees, of those which have been treated exclusively with prohexadione-calcium and of trees which had been treated with a combination of prohexadione-calcium and ethephon were counted and compared with each other.
Molecule,Floral development in the year after the treatment [1],Subsequent flowering [2],"Flowering in the subsequent year, April 2003 ([3]; Location 1, ProCa alone 150 g/ha on 15th April, 14th May, 16th June 2002, total 450 g/ha, untreated 183)","Flowering in the subsequent year, April 2003 ([3]; Location 2, ProCa alone four applications 120/87/87/95 g/ha (12th April, 3rd, 15th, 30th May 2002), total 389 g/ha, untreated 250)","Flowering in the subsequent year, April 2003 ([3]; Location 2, ProCa alone three applications 120/87/87 g/ha (12th April, 3rd, 15th May 2002), total 294 g/ha, untreated 250)","Floral development in the year following the treatment (summary in words) ([3]; pear trees, Tables 1 and 2)"
CCOC(=O)C1CC(=O)C(=C(O)C2CC2)C(=O)C1 (centres unmarked) [trinexapac-ethyl],markedly reduced floral development,,,,,
O=C1CC(C(=O)O)CC(=O)C1=C(O)C1CC1 (centres unmarked) [trinexapac],markedly reduced floral development,,,,,
prohexadione-calcium [ProCa],markedly reduced floral development,reduced subsequent flowering,137 number of inflorescences/tree,157 number of inflorescences/tree,152 number of inflorescences/tree,reduced floral development
